29 compounds from US20120065187A1 (ALCON RESEARCH, LTD, priority 2008, published 2012) can be followed below.

One assay addresses T1, human H1 (Homo sapiens, UniProt P35367).
T1 construct: host or cells: CHO-K1
As to the kind of experiment: In vitro histamine receptor cell-based assay (aequorin bioluminescence), H1 antagonism. The following applies: CHO-K1 cells expressing human H1 and aequorin; histamine at EC80; read-out: H1 Antagonist EC50. The method, then:
The cell-based assays utilize an aequorin dependent bioluminescence signal. Doubly-transfected, stable CHO-K1 cell lines expressing human H1 or H4, mitochondrion-targeted aequorin, and (H4 only) human G protein Gα16 are obtained from Perkin-Elmer. Cells are maintained in F12 (Ham's) growth medium, containing 10% (vol./vol.) fetal bovine serum, penicillin (100 IU/mL), streptomycin (0.1 mg/mL), zeocin (0.25 mg/mL) and geneticin (0.40 mg/mL). Cell media components are from Invitrogen, Inc. One day prior to assay, the growth medium is replaced with the same, excluding zeocin and geneticin.
For assay preparation, growth medium is aspirated, and cells are rinsed with calcium-free, magnesium-free phosphate-buffered saline, followed by two to three minute incubation in Versene (Invitrogen, Inc.) at 37° C. Assay medium (DMEM:F12 [50:50], phenol-red free, containing 1 mg/mL protease-free bovine serum albumin) is added to collect the released cells, which are then centrifuged. The cell pellet is re-suspended in assay medium, centrifuged once more, and re-suspended in assay medium to a final density of 5×10^6 cells/mL. Coelenterazine-h dye (500 μM in ethanol) is added to a final concentration of 5 μM, and mixed immediately. The conical tube containing the cells is then wrapped with foil to protect the light-sensitive dye. The cells are incubated for four hours further at room temperature (approximately 21° C.) with end-over-end rotation to keep them in suspension.
Just before assay, the dye-loaded cells are diluted to 0.75×10^6 cells/mL (H1 receptor) or 1.5×10^6 cells/mL (H4 receptor) with additional assay medium. Cells are dispensed to 1536 well micro-titer plates at 3 μL/well. To assay receptor antagonism, 60 nl of 100× concentration test compounds in 100% dimethyl sulfoxide (DMSO) are dispensed to the wells, one compound per well, by passive pin transfer, and the plates are incubated for 15 minutes at room temperature. Assay plates are then transferred to a Lumilux bioluminescence plate reader (Perkin-Elmer) equipped with an automated 1536 disposable tip pipette. The pipette dispenses 3 μL/well of agonist (histamine, at twice the final concentration, where final concentration is a previously determined EC80) in assay medium, with concurrent bioluminescence detection. Agonist activity of test compounds is excluded by separate assays that measure response to test compounds immediately, without added histamine agonist.
CCD image capture on the Lumilux includes a 5 second baseline read prior to agonist addition, and generally a 40 second read per plate after agonist addition. A decrease in bioluminescence signal (measured either as area-under-the-curve, or maximum signal amplitude minus minimum signal amplitude) correlates with receptor antagonism in a dose dependent manner. The negative control is DMSO lacking any test compound. For antagonist assays, the positive controls are diphenhydramine (2-Diphenylmethoxy-N,N-dimethylethylamine, 10 μM final concentration, H1 receptor) or JNJ7777120 (1-[(5-Chloro-1H-indol-2-yl)carbonyl]-4-methyl-piperazine, 10 μM final concentration, H4 receptor). Efficacy is measured as a percentage of positive control activity.

The next assay has as its target T2, human H4 (Homo sapiens, UniProt Q9H3N8).
T2 construct: host or cells: CHO-K1
As to the kind of experiment: In vitro histamine receptor cell-based assay (aequorin bioluminescence), H4 antagonism. To be noted: CHO-K1 cells expressing human H4, aequorin and Gα16; histamine at EC80; read-out: H4 Antagonist EC50. A digest of the protocol: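 Antagonism read as loss of aequorin luminescence after histamine (EC80 final) addition, following 15 min room-temperature compound pretreatment of coelenterazine-h-loaded (5 μM) CHO-K1 cells co-expressing human H4 and Gα16. Efficacy given relative to 10 μM JNJ7777120; agonism excluded in separate no-histamine runs.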

T1 sequence (P35367 whole entry): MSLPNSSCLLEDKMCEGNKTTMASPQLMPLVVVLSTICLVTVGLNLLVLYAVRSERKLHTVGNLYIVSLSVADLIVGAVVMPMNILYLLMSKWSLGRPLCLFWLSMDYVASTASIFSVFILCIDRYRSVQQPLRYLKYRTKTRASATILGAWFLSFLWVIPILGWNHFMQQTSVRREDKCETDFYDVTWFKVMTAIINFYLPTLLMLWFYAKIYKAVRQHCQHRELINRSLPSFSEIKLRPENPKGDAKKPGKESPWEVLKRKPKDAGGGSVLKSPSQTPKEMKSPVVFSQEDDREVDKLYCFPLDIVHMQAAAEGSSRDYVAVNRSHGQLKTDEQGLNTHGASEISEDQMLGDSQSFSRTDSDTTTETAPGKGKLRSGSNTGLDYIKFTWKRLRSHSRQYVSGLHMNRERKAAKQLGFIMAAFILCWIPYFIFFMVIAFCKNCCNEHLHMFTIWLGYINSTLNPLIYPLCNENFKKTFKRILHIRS
T2 sequence (Q9H3N8 whole entry): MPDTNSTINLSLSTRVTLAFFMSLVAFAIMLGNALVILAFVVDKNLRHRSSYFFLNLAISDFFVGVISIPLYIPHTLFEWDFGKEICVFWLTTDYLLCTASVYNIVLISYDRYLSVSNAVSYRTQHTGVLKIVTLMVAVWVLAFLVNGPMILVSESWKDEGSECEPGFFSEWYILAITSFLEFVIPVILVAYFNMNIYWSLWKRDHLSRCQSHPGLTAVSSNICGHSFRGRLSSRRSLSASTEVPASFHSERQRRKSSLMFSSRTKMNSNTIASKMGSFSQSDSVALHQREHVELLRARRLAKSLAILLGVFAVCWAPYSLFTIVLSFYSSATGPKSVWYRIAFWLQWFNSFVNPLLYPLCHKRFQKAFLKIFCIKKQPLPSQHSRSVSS

For the compound `CN1CCN(c2nc3cc(C(F)(F)F)c(F)cc3n3nnnc23)CC1` [Example 201, 8-fluoro-4-(4-methylpiperazin-1-yl)-7-(trifluoromethyl)tetrazolo[1,5-a]quinoxaline], the EC50 at human H1 is more than 10 µM; on human H4, less than 10 µM.

As for `Brc1ccc2c(c1)nc(N1CCNCC1)c1nncn12` [Example 53, 7-bromo-4-(piperazin-1-yl)-[1,2,4]triazolo[4,3-a]quinoxaline], the EC50 on human H1 and on human H4 was more than 10 µM in each case.

Turning to `CCc1ccc2nc(N3CCNCC3)c3nncn3c2c1` [Example 91, 8-ethyl-4-(piperazin-1-yl)-[1,2,4]triazolo[4,3-a]quinoxaline], the EC50 is more than 10 µM on human H1 and less than 10 µM at human H4.

For `CN1CCN(c2nc3ccc(OC(F)(F)F)cc3n3cnnc23)CC1` [Example 50, 4-(4-methylpiperazin-1-yl)-8-(trifluoromethoxy)-[1,2,4]triazolo[4,3-a]quinoxaline], the 50% effective concentration (EC50) at human H1 was more than 10 µM; on human H4, less than 10 µM.

Turning to `CN1CCN(c2nc3cc(Cl)ccc3c3cccnc23)CC1` [Example 249, 8-chloro-5-(4-methylpiperazin-1-yl)benzo[f][1,7]naphthyridine], the EC50 at human H1 and at human H4 was less than 10 µM each time.

`FC(F)(F)c1ccc2nc(N3CCNCC3)n3nc(C(F)(F)F)nc3c2c1` [Example 121, 5-(piperazin-1-yl)-2,9-bis(trifluoromethyl)-[1,2,4]triazolo[1,5-c]quinazoline]: the EC50 at human H1 and on human H4 was more than 10 µM each time.

On to `Clc1ccc2nc(N3CC4CCCNC4C3)c3nncn3c2c1` (stereo not shown) [Example 61, 8-chloro-4-(tetrahydro-1H-pyrrolo[3,4-b]pyridin-6(2H,7H,7aH)-yl)-[1,2,4]triazolo[4,3-a]quinoxaline], for which the concentration giving a half-maximal response (EC50) at human H1 was more than 10 µM; at human H4, less than 10 µM.

Turning to `CNCCN(C)c1nc2ccc(Cl)cc2n2cnnc12` [Example 77, N^1-(8-chloro-[1,2,4]triazolo[4,3-a]quinoxalin-4-yl)-N^1,N^2-dimethylethane-1,2-diamine], the EC50 on human H1 and at human H4 was more than 10 µM each time.

Take `NC1CN(c2nc3ccc(Cl)cc3n3cnnc23)C1` [Example 63, 1-(8-chloro-[1,2,4]triazolo[4,3-a]quinoxalin-4-yl)azetidin-3-amine]: the EC50 on human H1 is more than 10 µM; at human H4, less than 10 µM.

For the compound `Clc1ccc2nc(N3CCN4CCCC4C3)c3nncn3c2c1` (stereo not shown) [Example 65, 8-chloro-4-(hexahydropyrrolo[1,2-a]pyrazin-2(1H)-yl)-[1,2,4]triazolo[4,3-a]quinoxaline], the figures for the EC50 on human H1 and at human H4 were more than 10 µM and less than 10 µM, respectively.

`Clc1ccc2nc(N3CCNCC3)n3nnnc3c2c1` [Example 12, 9-Chloro-5-(piperazin-1-yl)tetrazolo[1,5-c]quinazoline]: the concentration giving a half-maximal response (EC50) at human H1 was more than 10 µM; at human H4, less than 10 µM.

Take `Cc1nc2c(N3CCNCC3)nc3ccc(Cl)cc3n2n1` [Example 164, 8-chloro-2-methyl-4-(piperazin-1-yl)-[1,2,4]triazolo[1,5-a]quinoxaline]: the EC50 was more than 10 µM at human H1 and less than 10 µM on human H4.

For the compound `Clc1ccc2nc(N3CCNCC3)c3nocc3c2c1` [Example 167, 8-Chloro-4-(piperazin-1-yl)isoxazolo[3,4-c]quinoline], the EC50 on human H1 and on human H4 was less than 10 µM each time.

Take `C[C@@H]1CN(c2nc3ccc(Cl)cc3n3cnnc23)C[C@H](C)N1` [Example 83, 8-chloro-4-((3S,5R)-3,5-dimethylpiperazin-1-yl)-[1,2,4]triazolo[4,3-a]quinoxaline]: the EC50 at human H1 and on human H4 was more than 10 µM in each case.

With `CC(C)c1nc2c3cc(Cl)ccc3nc(N3CCNCC3)n2n1` [Example 117, 9-Chloro-2-isopropyl-5-(piperazin-1-yl)-[1,2,4]triazolo[1,5-c]quinazoline], the EC50 at human H1 and on human H4 was more than 10 µM each time.

As to `C=Cc1ccc2nc(N3CCNCC3)n3nc(C)nc3c2c1` [Example 138, 2-methyl-5-(piperazin-1-yl)-9-vinyl-[1,2,4]triazolo[1,5-c]quinazoline], the EC50 is more than 10 µM at human H1 and less than 10 µM at human H4.

`Cc1nc2c3cc(Cl)c(F)cc3nc(N3CCNCC3)n2n1` [Example 96, 9-Chloro-8-fluoro-2-methyl-5-(piperazin-1-yl)-[1,2,4]triazolo[1,5-c]quinazoline]: the figures for the EC50 on human H1 and at human H4 were more than 10 µM and less than 10 µM, respectively.

`CN1CCN(c2nc3cc(C(F)(F)F)c(F)cc3n3cnnc23)CC1` [Example 42, 8-fluoro-4-(4-methylpiperazin-1-yl)-7-(trifluoromethyl)-[1,2,4]triazolo[4,3-a]quinoxaline]: the EC50 is more than 10 µM on human H1 and less than 10 µM on human H4.

As for `CN1CCN(c2nc3cc(F)c(F)cc3n3ccnc23)CC1` [Example 181, 7,8-difluoro-4-(4-methylpiperazin-1-yl)imidazo[1,2-a]quinoxaline], the figures for the concentration giving a half-maximal response (EC50) on human H1 and on human H4 were more than 10 µM and less than 10 µM, respectively.

Regarding `CN1CCN(c2nc3ccc(Cl)cc3c3ncnn23)CC1` [Example 111, 9-chloro-5-(4-methylpiperazin-1-yl)-[1,2,4]triazolo[1,5-c]quinazoline], the concentration giving a half-maximal response (EC50) at human H1 is more than 10 µM; at human H4, less than 10 µM.

`Cc1cn2c(n1)c(N1CCN(C)CC1)nc1ccc(Cl)cc12` [Example 9, 8-Chloro-2-methyl-4-(4-methylpiperazin-1-yl)imidazo[1,2-a]quinoxaline]: the values for the EC50 at human H1 and on human H4 were more than 10 µM and less than 10 µM, respectively.

Turning to `CC(C)c1nc2c3cc(Cl)ccc3nc(N3CCN(C)CC3)n2n1` [Example 116, 9-Chloro-2-isopropyl-5-(4-methylpiperazin-1-yl)-[1,2,4]triazolo[1,5-c]quinazoline], the EC50 on human H1 and at human H4 was more than 10 µM throughout.

On to `C=Cc1ccc2nc(N3CCN(C)CC3)c3nncn3c2c1` [Example 88, 4-(4-methylpiperazin-1-yl)-8-vinyl-[1,2,4]triazolo[4,3-a]quinoxaline], for which the EC50 was more than 10 µM at human H1 and less than 10 µM at human H4.

For `Cn1cc2c(n1)c(N1CC[N+](C)(C)CC1)nc1ccc(Cl)cc12` [Example 154, 4-(8-Chloro-2-methyl-2H-pyrazolo[3,4-c]quinolin-4-yl)-1,1-dimethylpiperazin-1-ium], the EC50 at human H1 and at human H4 was more than 10 µM each time.

As for `CN1CCN(c2nc3ccc(C(F)(F)F)c(F)c3n3cnnc23)CC1` [Example 236, 9-fluoro-4-(4-methylpiperazin-1-yl)-8-(trifluoromethyl)-[1,2,4]triazolo[4,3-a]quinoxaline], the EC50 is more than 10 µM on human H1 and less than 10 µM at human H4.

For the compound `CN1CC[C@H](COc2nc3ccc(Cl)cc3n3cnnc23)C1` [Example 76, (S)-8-chloro-4-((1-methylpyrrolidin-3-yl)methoxy)-[1,2,4]triazolo[4,3-a]quinoxaline], the EC50 at human H1 and at human H4 was more than 10 µM throughout.

With `CN1CCN(c2nc3ccc(Cl)cc3c3nc(Cc4ccccc4)nn23)CC1` [Example 118, 2-Benzyl-9-chloro-5-(4-methylpiperazin-1-yl)-[1,2,4]triazolo[1,5-c]quinazoline], the EC50 on human H1 and at human H4 was more than 10 µM each time.

Turning to `Cc1nnc2c(N3CCN(C)CC3)nc3ccc(Cl)cc3n12` [Example 84, 8-chloro-1-methyl-4-(4-methylpiperazin-1-yl)-[1,2,4]triazolo[4,3-a]quinoxaline], the EC50 at human H1 was more than 10 µM; at human H4 it was less than 10 µM.

With `FC(F)(F)c1ccc2c(c1)nc(N1CCNCC1)c1nncn12` [Example 26, 4-(piperazin-1-yl)-7-(trifluoromethyl)-[1,2,4]triazolo[4,3-a]quinoxaline], the EC50 on human H1 and at human H4 was more than 10 µM each time.

The EC50 is the concentration that produces a half-maximal response.
